Measured values published in patent publication US20060189682A1, “Water soluble prodrugs of COX-2 inhibitors” (priority 2005, published 2006).
Read-outs that look alike come from different tables or passages of the source.

Key:
[1] = Solubility in deionized water @ 25° C.; type: physicochemical
Description: (§1) The physiochemical properties of Examples 1-6 and their ability to behave as pro-drugs and release in vivo the parent drug (the desired COX-2 inhibitor 5(S)-ethyl-3-isopropoxy-4-(4-methanesulfonylphenyl)-5-methyl-5H-furan-2-one) were examined. […] To ascertain the rates of conversion of the pro-drugs in vivo, the compounds were dosed as a saline solution of the salt form (except for 1, which was dosed in a PEG-400 solution) in Sprague-Dawley rats at 2 mg/kg intravenously. Plasma levels were measured for levels of the respective pro-drug and the desired COX-2 inhibitor at 5, 15, 30, and 60 min time points. The plasma levels measured at 30 minutes are given below (Table 1).

[2] = Plasma levels of pro-drug and desired COX-2 inhibitor after i.v. dosing in Sprague-Dawley rats; type: in vivo; conditions: for Pharmacokinetic characteristics / In vivo conversion to parent drug in plasma / Levels of pro-drug in vivo: 2 mg/kg i.v.; for Pharmacokinetic characteristics / concentration at 30 min / In vivo conversion to parent drug in plasma: rat; for concentration at 30 min: iv, plasma, 2 mg/kg i.v. dose of pro-drug, Sprague-Dawley rats, value @ 30 min, read-out: Levels of Pro-Drug @ 0.5 hr; for In vivo conversion to parent drug in plasma: plasma at 30 min; for Levels of pro-drug in vivo: rat model
Description: as §1

[3] = Stability of 4 mg/mL solution in water, judged @ 24 hr by LC-MS/HPLC; type: physicochemical; conditions: after 24 hr in water, HPLC analysis
Description: as §1

[4] = background statement; cited from earlier work
[5] = test system: infarct volume; conditions: MCAO stroke model; cited from earlier work
[6] = deionized water, 25 °C, water, read-out: Solubility
[7] = saline solution of the salt form

SMILES	solubility [1, 6] [µg/mL]	Pharmacokinetic characteristics [2]	In vivo conversion to parent drug in plasma [2]	also measured
CC[C@]1(C)O/C(=N\[C@@H](CO)C(=O)[O-])C(OC(C)C)=C1c1ccc(S(C)(=O)=O)cc1.[K+] [Example 4, N-[(5S)-5-ethyl-3-isopropoxy-5-methyl-4-[4-(methylsulfonyl)phenyl]furan-2(5H)-ylidene]-L-serine potassium salt]	> 10000		failed to give appreciable amounts of the parent drug	solubility ([1]; potassium salt): >20000 µg/mL; Levels of pro-drug in vivo [2]: dropped rapidly
CC[C@@]1(C)OC2(OC[C@@H]([C@H]3OC(=O)C(O)=C3[O-])O2)C(OC(C)C)=C1c1ccc(S(C)(=O)=O)cc1.[Na+] (stereo partly drawn) [Example 5]	> 10000	superior pharmacokinetic characteristics		solubility ([1]; monosodium salt): >20000 µg/mL; Stability in solution [3]: rapid decomposition
CC[C@]1(C)O/C(=N\OCC(=O)[O-])C(OC(C)C)=C1c1ccc(S(C)(=O)=O)cc1.[Na+] [Example 6, [[[(5S)-5-ethyl-5-methyl-3-(1-methylethoxy)-4-[4-(methylsulfonyl)phenyl]-2(5H)-furanylidene]amino]oxy]acetic acid sodium salt]	> 10000		failed to give appreciable amounts of the parent drug	solubility ([1]; sodium salt): 10000 µg/mL; Levels of pro-drug in vivo [2]: dropped rapidly
CC[C@]1(C)OC(=O)C(OC(C)C)=C1c1ccc(S(C)(=O)=O)cc1 [parent drug, 5(S)-ethyl-3-isopropoxy-4-(4-methanesulfonylphenyl)-5-methyl-5H-furan-2-one]				Water solubility [4]: poor water solubility; Infarct volume [5]: reduction in infarct volume

Second part, led by results:

solubility [1, 6] [µg/mL]	Pharmacokinetic characteristics [2]	SMILES	In vivo conversion to parent drug in plasma [2]	also measured
> 10000	superior pharmacokinetic characteristics	CC[C@]1(C)OC2(OCC(COP(=O)([O-])OCC[N+](C)(C)C)O2)C(OC(C)C)=C1c1ccc(S(C)(=O)=O)cc1 (stereo in doubt) [Example 3, 2-{[({(2R,7S)-7-ethyl-9-isopropoxy-7-methyl-8-[4-(methylsulfonyl)phenyl]-1,4,6-trioxaspiro[4.4]non-8-en-2-yl}methoxy)(hydroxy)phosphoryl]oxy}-N,N,N-trimethylethanaminium]		solubility [1]: >20000 µg/mL; concentration at 30 min [2, 7]: 200 nM
< 1000	superior pharmacokinetic characteristics	CC[C@]1(C)OC2(OCC(CO)O2)C(OC(C)C)=C1c1ccc(S(C)(=O)=O)cc1 (stereo partly drawn) [Example 1, {(7S)-7-ethyl-9-isopropoxy-7-methyl-8-[4-(methylsulfonyl)phenyl]-1,4,6-trioxaspiro[4.4]non-8-en-2-yl}methanol]	converted to yield appreciable levels of the parent drug	solubility [1]: <1000 µg/mL; concentration at 30 min ([2]; dosed in PEG-400 solution): 1400 nM
2000	superior pharmacokinetic characteristics	CC[C@]1(C)OC2(OCC(COC(=O)CCC(=O)[O-])O2)C(OC(C)C)=C1c1ccc(S(C)(=O)=O)cc1.[Na+] (stereo partly drawn) [Example 2, Sodium 4-({(7S)-7-ethyl-9-isopropoxy-7-methyl-8-[4-(methylsulfonyl)phenyl]-1,4,6-trioxaspiro[4.4]non-8-en-2-yl}methoxy)-4-oxobutanoate]	converted to yield appreciable levels of the parent drug	concentration at 30 min [2, 7]: < 100 nM
